Here are results for three compounds from patent US7348140B1, “Clinical indications for genotyping polymorphic variants of G-protein coupled receptors” (Acadia Pharmaceuticals, Inc., priority 2001, dated 2008).

Test [1] addresses T1, thromboxane receptor V80E (Glutamic Acid 80) (Homo sapiens, UniProt P21731, V80E).
T1 construct: expressed in transfected cells; host or cells: NIH-3T3
Kind of test: R-SAT functional assay, thromboxane receptor V80E. The note with it: shift in functional potency, Glutamic Acid 80 vs Valine 80; Table 26. The format is cell-based.

In test [2] the target is T2, thromboxane receptor E94V (Valine 94) (Homo sapiens, UniProt P21731, E94V).
T2 construct: expressed in transfected cells; host or cells: NIH-3T3
T2 sequence (P21731 whole entry E94V): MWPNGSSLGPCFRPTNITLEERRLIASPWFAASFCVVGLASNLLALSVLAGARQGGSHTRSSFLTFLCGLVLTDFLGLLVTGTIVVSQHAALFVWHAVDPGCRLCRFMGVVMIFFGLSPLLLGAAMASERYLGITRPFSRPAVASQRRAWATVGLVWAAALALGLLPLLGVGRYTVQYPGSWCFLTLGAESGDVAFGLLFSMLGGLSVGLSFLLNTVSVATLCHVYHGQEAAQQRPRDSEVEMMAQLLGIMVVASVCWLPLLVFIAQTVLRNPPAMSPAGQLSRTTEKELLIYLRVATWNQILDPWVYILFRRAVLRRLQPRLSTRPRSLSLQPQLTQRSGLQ
Kind of test: R-SAT functional assay, thromboxane receptor E94V. The test is classed as cell-based. The note with it: shift in functional potency, Valine 94 vs Glutamine 94; Table 27.

The target in test [3] is T3, thromboxane receptor V176E (Glutamic Acid 176) (Homo sapiens, UniProt P21731, V176E).
T3 construct: expressed in transfected cells; host or cells: NIH-3T3
T3 sequence (P21731 whole entry V176E): as the sequence (P21731 whole entry E94V) above, with V94E, V176E counted along it
Kind of test: R-SAT functional assay, thromboxane receptor V176E. The format is cell-based. The note with it: shift in functional potency, Glutamic Acid 176 vs Valine 176.

The target in test [4] is Cholecystokinin B receptor L224Q variant (Glutamine 224) (UniProt P32239). Description: cell-based or functional assay.
Cholecystokinin B receptor L224Q variant (Glutamine 224), sequence (P32239 whole entry L224Q): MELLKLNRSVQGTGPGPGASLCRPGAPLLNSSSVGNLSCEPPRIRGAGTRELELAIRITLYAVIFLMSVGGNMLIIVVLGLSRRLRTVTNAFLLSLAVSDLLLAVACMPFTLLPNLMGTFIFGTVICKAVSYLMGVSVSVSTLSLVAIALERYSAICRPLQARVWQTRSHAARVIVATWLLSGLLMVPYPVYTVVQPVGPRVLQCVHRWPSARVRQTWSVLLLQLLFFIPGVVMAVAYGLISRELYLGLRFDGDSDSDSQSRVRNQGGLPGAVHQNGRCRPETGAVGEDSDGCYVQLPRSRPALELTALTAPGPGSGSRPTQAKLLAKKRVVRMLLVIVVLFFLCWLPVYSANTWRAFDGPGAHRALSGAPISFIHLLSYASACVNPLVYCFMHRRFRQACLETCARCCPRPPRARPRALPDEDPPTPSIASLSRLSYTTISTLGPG
Test [5] deals with Cholecystokinin B receptor, wild type (Leucine 224) (UniProt P32239). Description: cell-based or functional assay.
Cholecystokinin B receptor, wild type (Leucine 224), sequence (P32239 whole entry): as the sequence (P32239 whole entry L224Q) above, with Q224L counted along it

T1 sequence (P21731 whole entry V80E): as the sequence (P21731 whole entry E94V) above, with V80E, V94E counted along it

As for `O=C(O)CCC/C=C\C[C@@H]1[C@@H](/C=C/[C@@H](O)COc2ccc(I)cc2)[C@H]2CC[C@@H]1O2` [I-BOP], the FOLD in test [1] was 93 fold; in test [2], 3.5 fold; in test [3], 13 fold.
Consider `CCCCC[C@H](O)/C=C/[C@@H]1[C@@H](C/C=C\CCCC(=O)O)[C@H]2CO[C@@H]1C2` [U46619], for which the FOLD was found to be 63 fold in test [1], 6.0 fold in test [2] and 5 fold in test [3].
With “Gastrin (from UniProt P01350 76-92) (peptide)”, in test [4], the Ave -Log EC50, R-SAT functional potency was 9.78 -log EC50 and the FOLD (shift in functional potency against wild type; negative = gain of function) is -11.7 fold. The Ave -Log EC50, R-SAT functional potency in test [5] was 8.71 -log EC50.
